From PMC2858655, “Structural and Functional Characterization of Human Peripheral Nervous System Myelin Protein P2” (PLoS ONE, 2010)

What was measured:
[1] = molecular target: T1, His-tagged P2 protein (His-P2) (Homo sapiens, UniProt P02689); assay: intrinsic Trp fluorescence quenching; type: binding; conditions: 9.4 µM protein, 10 µM cholesterol, 1% ethanol, HEPES, 150 mM NaCl, pH 7.5, 120 min, room temperature, excitation 280 nm
T1 construct: gene PMP2; full length, N-terminal His6 tag with TEV site kept (pTH27), E. coli Rosetta(DE3)

[2] = molecular target: T2, human myelin P2 protein (untagged) (Homo sapiens, UniProt P02689); assay: X-ray crystallography, […] Å; type: binding; conditions: fatty acid carried over from E. coli, identity modelled from electron density; inside barrel cavity; pH 8.5
T2 construct: gene PMP2

Compound: CC(C)CCC[C@@H](C)[C@H]1CC[C@H]2[C@@H]3CC=C4C[C@@H](O)CC[C@]4(C)[C@H]3CC[C@]12C [cholesterol]
- decrease of fluorescence intensity [1]: ~ 25%

Compound: CCCCCCCCCCCCCCCC(=O)O [palmitate]
- X-ray crystallography, 1.85 Å [2]: a palmitate molecule, well-defined in the electron density (Figure 2B,4A), was modeled into the lipid-binding cavity
